# Assay results taken from patent publication US11691980B2, “Liphagal analog and multi-targeted kinase inhibitor containing liphagal or analog thereof” (TOHOKU UNIVERSITY, priority 2017, dated 2023).
# What was measured:
# Type in all cases: biochemical
# AKT3 = target: T1, AKT3 (Homo sapiens, UniProt Q9Y243); assay: mobility shift assay
# T1 construct: purchased Carna Biosciences
# FGFR2 = target: T2, FGFR2 (Homo sapiens, UniProt P21802); assay: mobility shift assay
# T2 construct: purchased Carna Biosciences
# T2 sequence (P21802 22-821): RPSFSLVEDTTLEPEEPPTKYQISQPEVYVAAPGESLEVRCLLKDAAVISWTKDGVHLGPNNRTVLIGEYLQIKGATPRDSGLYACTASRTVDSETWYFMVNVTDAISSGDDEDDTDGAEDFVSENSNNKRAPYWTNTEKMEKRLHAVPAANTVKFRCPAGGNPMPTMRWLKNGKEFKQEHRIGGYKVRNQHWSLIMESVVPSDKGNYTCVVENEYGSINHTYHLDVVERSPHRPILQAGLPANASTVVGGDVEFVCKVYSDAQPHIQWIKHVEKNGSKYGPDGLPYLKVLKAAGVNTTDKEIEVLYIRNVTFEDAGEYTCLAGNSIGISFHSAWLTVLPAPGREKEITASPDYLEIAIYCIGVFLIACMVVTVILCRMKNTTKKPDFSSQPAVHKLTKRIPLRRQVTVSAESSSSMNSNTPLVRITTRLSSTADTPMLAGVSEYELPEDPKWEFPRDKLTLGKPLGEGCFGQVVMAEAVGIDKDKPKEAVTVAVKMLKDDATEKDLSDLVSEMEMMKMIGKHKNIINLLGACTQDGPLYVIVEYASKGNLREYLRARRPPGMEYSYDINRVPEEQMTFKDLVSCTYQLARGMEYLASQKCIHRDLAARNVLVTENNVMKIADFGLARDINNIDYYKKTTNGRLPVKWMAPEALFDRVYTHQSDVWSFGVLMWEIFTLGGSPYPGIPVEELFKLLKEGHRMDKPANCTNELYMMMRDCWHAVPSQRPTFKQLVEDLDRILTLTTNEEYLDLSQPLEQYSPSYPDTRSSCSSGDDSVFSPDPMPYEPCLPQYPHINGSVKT
# WNK3 = target: T3, WNK3 (Homo sapiens, UniProt Q9BYP7); assay: mobility shift assay
# T3 construct: purchased Carna Biosciences
# CHK2 = target: T4, CHK2 (Homo sapiens, UniProt O96017); assay: mobility shift assay
# T4 construct: purchased Carna Biosciences
# MAPKAPK5 = target: T5, MAPKAPK5 (Homo sapiens, UniProt Q8IW41); assay: mobility shift assay
# T5 construct: purchased Carna Biosciences
# ABL(T315I) = target: T6, ABL(T315I) (Homo sapiens, UniProt P00519, T315I); assay: mobility shift assay
# T6 construct: purchased Carna Biosciences
# PKCζ = target: T7, PKCζ (Homo sapiens, UniProt Q05513); assay: mobility shift assay
# T7 construct: purchased Carna Biosciences
# PKCη = target: T8, PKCη (Homo sapiens, UniProt P24723); assay: mobility shift assay
# T8 construct: purchased Carna Biosciences
# MAP3K5_Cascade = target: T9, MAP3K5_Cascade (Homo sapiens, UniProt Q99683); assay: mobility shift assay
# T9 construct: purchased Carna Biosciences
# MAP2K6_Cascade = target: T10, MAP2K6_Cascade (Homo sapiens, UniProt P52564); assay: mobility shift assay
# T10 construct: purchased Carna Biosciences
# T10 sequence (P52564 whole entry): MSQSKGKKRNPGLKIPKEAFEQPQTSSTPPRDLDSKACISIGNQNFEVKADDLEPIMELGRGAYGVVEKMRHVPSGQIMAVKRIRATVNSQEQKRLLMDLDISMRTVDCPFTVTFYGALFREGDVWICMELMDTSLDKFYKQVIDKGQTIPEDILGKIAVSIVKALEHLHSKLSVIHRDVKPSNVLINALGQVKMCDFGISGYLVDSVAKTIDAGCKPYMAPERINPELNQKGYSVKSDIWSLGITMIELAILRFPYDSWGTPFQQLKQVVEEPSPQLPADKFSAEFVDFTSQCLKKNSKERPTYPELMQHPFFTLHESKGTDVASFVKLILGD
# PKCβ2 = target: T11, PKCβ2 (Homo sapiens, UniProt P05771); assay: mobility shift assay
# T11 construct: purchased Carna Biosciences
# PAK2 = target: T12, PAK2 (Homo sapiens, UniProt Q13177); assay: mobility shift assay
# T12 construct: purchased Carna Biosciences
# p70S6Kβ = target: T13, p70S6Kβ (Homo sapiens, UniProt Q9UBS0); assay: mobility shift assay
# T13 construct: purchased Carna Biosciences
# T13 sequence (Q9UBS0 whole entry): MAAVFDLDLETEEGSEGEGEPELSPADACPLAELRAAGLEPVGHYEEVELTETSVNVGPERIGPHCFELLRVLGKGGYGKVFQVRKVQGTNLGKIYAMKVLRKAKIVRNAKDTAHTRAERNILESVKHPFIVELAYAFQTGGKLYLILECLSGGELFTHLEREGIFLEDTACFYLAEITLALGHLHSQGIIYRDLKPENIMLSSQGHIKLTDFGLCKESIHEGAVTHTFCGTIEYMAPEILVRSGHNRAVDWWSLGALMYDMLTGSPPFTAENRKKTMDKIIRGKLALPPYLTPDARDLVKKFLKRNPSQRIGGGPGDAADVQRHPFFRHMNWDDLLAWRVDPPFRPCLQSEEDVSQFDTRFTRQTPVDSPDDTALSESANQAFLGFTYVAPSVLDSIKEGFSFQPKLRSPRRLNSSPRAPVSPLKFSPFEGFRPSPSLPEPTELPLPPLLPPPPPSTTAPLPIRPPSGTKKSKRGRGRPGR
# Haspin = target: T14, Haspin (Homo sapiens, UniProt Q8TF76); assay: mobility shift assay
# T14 construct: purchased Carna Biosciences
# MAP2K4 Cascade = assay: mobility shift assay; details: 10 μM
# EPHA3 = target: T15, EPHA3 (Homo sapiens, UniProt P29320); assay: mobility shift assay
# T15 construct: purchased Carna Biosciences
# ABL = target: T16, ABL (Homo sapiens, UniProt P00519); assay: mobility shift assay
# T16 construct: purchased Carna Biosciences
# PIK3α (PIK3CA/PIK3R1) = PIK3α (PIK3CA/PIK3R1) (Homo sapiens, UniProt P42336); assay: IC50 by mobility shift assay; details: Table 2, mobility shift assay; read-out: IC50 (μM), Kinase PIK3CA/PIK3RI
# Procedure: The compounds obtained in Production Examples described above were each measured for its IC50 value for PIK3α (PIK3CA/PIK3R1) by mobility shift assay. The mobility shift assay is a method involving separating and quantifying a substrate and a phosphorylated substrate on the basis of mobility in a capillary. Each compound was mixed at various concentrations with an assay buffer (20 mM HEPES, 2 mM DTT, 25 μM sodium cholate, 75 mM NaCl, 20 μM cantharidine) together with 21 nM PI3K, 1,000 nM phosphatidyl inositol, 50 μM ATP, and 5 mM MgCl, and the mixture was subjected to a reaction at room temperature for 5 hours, followed by the mobility shift assay. The test was repeated twice. The enzymatic reaction was assessed on the basis of a product ratio (P/(P+S)) calculated from the height of a substrate peptide peak (S) and the height of a phosphorylated peptide peak (P). An inhibition rate was calculated from a signal obtained when each compound was added, with the average signal of a control containing all reaction components being defined as 0% inhibition and the average signal of a background (no enzyme added) being defined as 100% inhibition.
# The compounds produced in Production Examples described above were each assessed for its inhibitory activity against CDK7, PIM2, and PI3K by mobility shift assay. In addition, a combination showing the highest inhibitory activity against each kinase is indicated by italics.
# DYRK2 = target: T17, DYRK2 (Homo sapiens, UniProt Q92630); assay: mobility shift assay
# T17 construct: purchased Carna Biosciences
# CLK2 = target: T18, CLK2 (Homo sapiens, UniProt P49760); assay: mobility shift assay
# T18 construct: purchased Carna Biosciences
# HCK = target: T19, HCK (Homo sapiens, UniProt P08631); assay: mobility shift assay
# T19 construct: purchased Carna Biosciences
# T19 sequence (P08631 whole entry): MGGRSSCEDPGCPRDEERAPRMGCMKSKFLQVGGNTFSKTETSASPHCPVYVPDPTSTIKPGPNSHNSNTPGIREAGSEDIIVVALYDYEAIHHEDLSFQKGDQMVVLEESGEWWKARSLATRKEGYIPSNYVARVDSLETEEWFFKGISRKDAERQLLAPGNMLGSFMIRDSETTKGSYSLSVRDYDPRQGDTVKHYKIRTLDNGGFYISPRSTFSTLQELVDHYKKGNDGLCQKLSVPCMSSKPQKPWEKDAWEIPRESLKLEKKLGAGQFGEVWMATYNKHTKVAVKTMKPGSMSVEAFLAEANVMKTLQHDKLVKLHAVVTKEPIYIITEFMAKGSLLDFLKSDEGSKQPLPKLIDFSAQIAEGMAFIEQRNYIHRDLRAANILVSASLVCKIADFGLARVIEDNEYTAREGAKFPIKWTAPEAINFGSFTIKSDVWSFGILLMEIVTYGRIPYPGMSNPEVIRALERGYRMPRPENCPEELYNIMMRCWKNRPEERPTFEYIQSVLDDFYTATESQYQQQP
# Etk2 = target: T20, Etk2 (Homo sapiens, UniProt P28482); assay: mobility shift assay
# T20 construct: purchased Carna Biosciences
# T20 sequence (P28482 whole entry): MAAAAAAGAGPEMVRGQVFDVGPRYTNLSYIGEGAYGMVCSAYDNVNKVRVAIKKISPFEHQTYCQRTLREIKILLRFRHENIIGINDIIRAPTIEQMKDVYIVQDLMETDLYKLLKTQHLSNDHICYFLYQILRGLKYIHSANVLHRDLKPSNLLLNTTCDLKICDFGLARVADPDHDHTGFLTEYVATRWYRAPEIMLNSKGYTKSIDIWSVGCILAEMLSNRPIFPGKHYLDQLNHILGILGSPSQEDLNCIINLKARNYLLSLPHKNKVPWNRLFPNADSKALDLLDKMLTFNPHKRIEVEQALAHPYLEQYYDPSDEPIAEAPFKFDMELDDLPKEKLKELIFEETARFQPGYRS
# CDK9/CvcT1 = target: T21, CDK9/CvcT1 (Homo sapiens, UniProt P50750); assay: mobility shift assay
# T21 construct: purchased Carna Biosciences
# SPHK2 = target: T22, SPHK2 (Homo sapiens, UniProt Q9NRA0); assay: mobility shift assay
# T22 construct: purchased Carna Biosciences
# FM8 = target: T23, FM8 (Homo sapiens, UniProt P07333); assay: mobility shift assay
# T23 construct: purchased Carna Biosciences
# RSK4 = target: T24, RSK4 (Homo sapiens, UniProt Q9UK32); assay: mobility shift assay
# T24 construct: purchased Carna Biosciences
# T24 sequence (Q9UK32 whole entry): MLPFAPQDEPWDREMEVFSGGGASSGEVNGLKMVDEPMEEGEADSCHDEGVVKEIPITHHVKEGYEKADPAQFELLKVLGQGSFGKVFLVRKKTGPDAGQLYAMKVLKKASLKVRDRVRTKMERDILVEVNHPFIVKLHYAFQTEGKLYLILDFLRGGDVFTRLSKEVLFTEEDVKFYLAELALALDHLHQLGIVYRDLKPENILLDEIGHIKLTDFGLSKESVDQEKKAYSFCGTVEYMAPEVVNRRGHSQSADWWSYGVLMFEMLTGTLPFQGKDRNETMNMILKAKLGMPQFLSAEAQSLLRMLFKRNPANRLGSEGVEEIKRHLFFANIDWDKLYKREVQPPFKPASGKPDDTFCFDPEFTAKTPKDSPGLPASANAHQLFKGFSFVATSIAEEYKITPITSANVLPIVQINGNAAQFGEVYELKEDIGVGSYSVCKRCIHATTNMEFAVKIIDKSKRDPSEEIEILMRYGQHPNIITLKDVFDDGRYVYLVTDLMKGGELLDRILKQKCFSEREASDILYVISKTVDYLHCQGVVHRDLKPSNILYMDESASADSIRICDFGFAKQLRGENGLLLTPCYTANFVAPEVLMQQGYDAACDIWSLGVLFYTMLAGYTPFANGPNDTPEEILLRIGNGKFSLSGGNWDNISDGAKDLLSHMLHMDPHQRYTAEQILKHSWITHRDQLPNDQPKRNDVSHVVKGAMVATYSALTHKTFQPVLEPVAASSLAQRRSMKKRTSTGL
# YES(T348I) = target: T25, YES(T348I) (Homo sapiens, UniProt P07947, T348I); assay: mobility shift assay
# T25 construct: purchased Carna Biosciences
# T25 sequence (P07947 whole entry T348I): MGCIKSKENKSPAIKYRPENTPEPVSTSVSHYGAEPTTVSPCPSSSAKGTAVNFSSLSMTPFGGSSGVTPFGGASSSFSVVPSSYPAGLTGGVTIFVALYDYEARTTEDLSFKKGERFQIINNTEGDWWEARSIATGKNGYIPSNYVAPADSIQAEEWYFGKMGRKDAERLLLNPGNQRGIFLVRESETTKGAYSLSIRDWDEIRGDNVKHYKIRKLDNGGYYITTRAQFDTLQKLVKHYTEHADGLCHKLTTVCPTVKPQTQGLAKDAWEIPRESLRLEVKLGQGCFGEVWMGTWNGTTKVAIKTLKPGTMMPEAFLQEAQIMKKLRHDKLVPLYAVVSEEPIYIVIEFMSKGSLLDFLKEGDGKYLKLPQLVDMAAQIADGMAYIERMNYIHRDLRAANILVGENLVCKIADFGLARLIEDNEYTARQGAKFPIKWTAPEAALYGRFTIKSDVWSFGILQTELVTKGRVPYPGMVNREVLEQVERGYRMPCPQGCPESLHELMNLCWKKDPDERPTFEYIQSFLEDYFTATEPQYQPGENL
# MNK = assay: mobility shift assay; details: 10 μM
# BRAF(V600E)_Cascade = target: T26, BRAF(V600E)_Cascade (Homo sapiens, UniProt P15056, V600E); assay: mobility shift assay
# T26 construct: purchased Carna Biosciences
# PDK1 = target: T27, PDK1 (Homo sapiens, UniProt O15530); assay: mobility shift assay
# T27 construct: purchased Carna Biosciences
# FAK = target: T28, FAK (Homo sapiens, UniProt Q05397); assay: mobility shift assay
# T28 construct: purchased Carna Biosciences
# RET(Y791F) = target: T29, RET(Y791F) (Homo sapiens, UniProt P07949, Y791F); assay: mobility shift assay
# T29 construct: purchased Carna Biosciences
# PDGFRα = target: T30, PDGFRα (Homo sapiens, UniProt P16234); assay: mobility shift assay
# T30 construct: purchased Carna Biosciences
# T30 sequence (P16234 24-1089): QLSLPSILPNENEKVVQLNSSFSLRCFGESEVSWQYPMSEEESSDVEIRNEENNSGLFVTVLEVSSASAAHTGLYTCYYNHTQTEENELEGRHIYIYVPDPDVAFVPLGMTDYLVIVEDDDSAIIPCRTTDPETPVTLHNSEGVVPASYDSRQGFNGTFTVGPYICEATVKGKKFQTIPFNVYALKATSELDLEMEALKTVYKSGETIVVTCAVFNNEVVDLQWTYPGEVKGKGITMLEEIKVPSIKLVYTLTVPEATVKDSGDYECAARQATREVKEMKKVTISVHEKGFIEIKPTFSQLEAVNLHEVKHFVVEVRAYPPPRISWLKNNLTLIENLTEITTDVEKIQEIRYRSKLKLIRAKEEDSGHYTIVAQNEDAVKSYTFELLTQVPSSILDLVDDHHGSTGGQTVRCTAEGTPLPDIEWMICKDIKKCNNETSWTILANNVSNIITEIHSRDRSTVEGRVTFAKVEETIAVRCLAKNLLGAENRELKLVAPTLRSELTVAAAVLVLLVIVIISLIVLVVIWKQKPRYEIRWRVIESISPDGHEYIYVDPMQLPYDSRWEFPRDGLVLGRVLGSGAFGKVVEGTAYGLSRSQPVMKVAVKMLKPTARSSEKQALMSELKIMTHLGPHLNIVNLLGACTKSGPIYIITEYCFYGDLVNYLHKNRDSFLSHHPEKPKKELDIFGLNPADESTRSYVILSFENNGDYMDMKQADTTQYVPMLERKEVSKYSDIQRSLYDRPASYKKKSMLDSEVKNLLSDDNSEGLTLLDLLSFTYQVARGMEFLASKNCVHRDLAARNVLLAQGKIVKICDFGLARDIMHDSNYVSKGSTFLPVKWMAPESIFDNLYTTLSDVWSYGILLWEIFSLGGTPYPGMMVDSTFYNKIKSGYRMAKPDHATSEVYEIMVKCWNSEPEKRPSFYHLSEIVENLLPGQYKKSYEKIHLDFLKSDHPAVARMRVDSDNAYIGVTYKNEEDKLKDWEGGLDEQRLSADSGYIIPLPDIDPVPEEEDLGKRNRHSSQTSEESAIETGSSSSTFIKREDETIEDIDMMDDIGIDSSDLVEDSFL
# MET = target: T31, MET (Homo sapiens, UniProt P08581); assay: mobility shift assay
# T31 construct: purchased Carna Biosciences
smiles,measurement,setting,value
"C[C@@H]1CC[C@H]2C(C)(C)CCC[C@]2(C)c2c1oc1c(C=O)c(O)c(O)cc21 [LG-1, liphagal]",inhibition at 10 µM,AKT3,3.3%
same,inhibition at 10 µM,FGFR2,-8.4%
same,inhibition at 10 µM,WNK3,19%
same,inhibition at 10 µM,CHK2,26.5%
same,inhibition at 10 µM,MAPKAPK5,4.8%
same,inhibition at 10 µM,ABL(T315I),6.1%
same,inhibition at 10 µM,PKCζ,-7.2%
same,inhibition at 10 µM,PKCη,-34.3%
same,inhibition at 10 µM,MAP3K5_Cascade,38%
same,inhibition at 10 µM,MAP2K6_Cascade,19.9%
same,inhibition at 10 µM,PKCβ2,-13.2%
same,inhibition at 10 µM,PAK2,12.4%
same,inhibition at 10 µM,p70S6Kβ,26.4%
same,inhibition at 10 µM,Haspin,3.3%
same,% Inhibition,MAP2K4 Cascade,9.1%
same,inhibition at 10 µM,EPHA3,-2.8%
same,inhibition at 10 µM,ABL,0.4%
same,IC50,PIK3α (PIK3CA/PIK3R1),4.12 µM
same,inhibition at 10 µM,DYRK2,18.9%
same,inhibition at 10 µM,CLK2,-25.5%
same,inhibition at 10 µM,HCK,4.8%
same,inhibition at 10 µM,Etk2,6.2%
same,inhibition at 10 µM,CDK9/CvcT1,18.8%
same,inhibition at 10 µM,SPHK2,17.4%
same,inhibition at 10 µM,FM8,12.5%
same,inhibition at 10 µM,RSK4,7.4%
same,inhibition at 10 µM,YES(T348I),3.7%
same,% Inhibition,MNK,0.0%
same,inhibition at 10 µM,BRAF(V600E)_Cascade,19.5%
same,inhibition at 10 µM,PDK1,-97.8%
same,inhibition at 10 µM,FAK,24.5%
same,inhibition at 10 µM,RET(Y791F),9.9%
same,inhibition at 10 µM,PDGFRα,8.2%
same,inhibition at 10 µM,MET,-1.3%
